Results on five compounds are retold here after patent US8143240B2, “17α, 21-dihydroxypregnene esters as antiandrogenic agents” (Cosmo S.p.A., priority 2001, dated 2012).

A word on the % inhibition: it is the percentage by which the read-out fell short of the control.

This test concerns flank organ. Put plainly: topical antiandrogenic activity test (hamster flank organ, Voigt and Hsia). The test is classed as in vivo, hamsters. The conditions noted are these: 21 days. The method, then:
The test was carried out on sexually immature female hamsters aged 6-8 weeks and weighing 65-90 grams.
At the beginning of the tests, the back of each animal was shaved to evidence the respective flank organ bilaterally. Animals were then subdivided into homogeneous groups and treated daily for 21 consecutive days. The tested steroids were dissolved at concentrations ranging from 100 to 400 micrograms in 50 microliters of an acetone solution containing 4 micrograms of testosterone propionate (TP) or 4 micrograms of dihydrotestosterone (DHT). 50 microliters of the solutions were applied to the right flank organ, while the contralateral organ used as individual control received only acetone (50 microliters). Control groups received TP or DHT alone, following the same procedures.
At the end of the tests, the animals were killed under ether anesthesia and the whole skine of the back was taken. The area of both flank organs was measured, separately, with transillumination. The mean differences between areas treated with the tested steroids and those treated with the carrier alone were calculated for each group, and said mean differences were compared, as inhibition percentages, to the mean differences between the areas in the control groups treated with either TP or DHT.

[1] abbreviates: DHT 4 μg + compound 400 μg daily, topical on right flank organ, female hamsters.
[2] abbreviates: TP 4 μg + compound 400 μg daily, topical on right flank organ, female hamsters.
[3] abbreviates: versus DHT control, DHT 4 μg + compound 400 μg daily, topical.
Where [4] appears, read: versus TP control, TP 4 μg + compound 400 μg daily, topical.
The mark [5] stands for this setting: androgen alone (control group), 4 μg daily, topical.

Take `CCC(=O)O[C@]1(C(=O)CO)CC[C@H]2[C@@H]3CCC4=CC(=O)CC[C@]4(C)C3=CC[C@@]21C` [Compound A, 17α-propionyl-21-hydroxy-pregna-4,9-diene-3,20-dione]: the “Mean difference of the areas” value by setting is: under setting [1], 9.7 ± 1.8 mm^2; under setting [2], 3.7 ± 1.1 mm^2. Besides, the “% inhibition” value is, setting by setting: under setting [3], 53%; under setting [4], 84%.
Regarding `C[C@]12CCC(=O)C[C@@H]1CC[C@@H]1[C@@H]2CC[C@]2(C)[C@@H](O)CC[C@@H]12` [DHT, dihydrotestosterone, reference compound], under setting [5], the “Mean difference of the areas” value is 20.8 ± 2.5 mm^2.
On to `CCCC(=O)OCC(=O)[C@@]1(OC(=O)CCC)CC[C@H]2[C@@H]3CCC4=CC(=O)CC[C@]4(C)C3=CC[C@@]21C` [Ex. 1, 17α,21-dibutanoyl-pregna-4,9-diene-3,20-dione], for which the “Mean difference of the areas” value reads like this: under setting [1], 3.7 ± 0.7 mm^2; under setting [2], 2.4 ± 1.1 mm^2. Besides, the “% inhibition” value amounted to 82% under setting [3] and 89% under setting [4].
In the case of `CCC(=O)O[C@H]1CC[C@H]2[C@@H]3CCC4=CC(=O)CC[C@]4(C)[C@H]3CC[C@]12C` [TP, testosterone propionate, reference compound], the “Mean difference of the areas” value under setting [5] is recorded as 22.7 ± 2.3 mm^2.
`CCCC(=O)OCC(=O)[C@@]1(O)CC[C@H]2[C@@H]3CCC4=CC(=O)CC[C@]4(C)C3=CC[C@@]21C` [Ex. 2, 17α-hydroxy-21-butanoyl-pregna-4,9-diene-3,20-dione]: the “Mean difference of the areas” value came to 4.1 ± 0.5 mm^2 under setting [1] and 3.3 ± 1.2 mm^2 under setting [2]. Also, the “% inhibition” value under setting [3] stood at 80% and the “% inhibition” value under setting [4] amounted to 85%.
